Laboratory results: ChEMBL document CHEMBL1121661, “Synthesis and antitumor activity of a series of sulfone analogues of 1,4-naphthoquinone” (1981)

Columns and labels:
Type in all cases: functional
Mus musculus [1] = experiment: Percent inhibition of Ehrlich ascites carcinoma growth at 10 mg/kg per day
Mus musculus [2] = experiment: Effect on P-388 lymphocytic leukemia growth at a given dose 10 mg/kg per day ip expressed as average survival days of treated mice; conditions: route intraperitoneal
Mus musculus [3] = experiment: Percent packed cell volume at 10 mg/kg per day
Mus musculus [4] = experiment: Effect on P-388 lymphocytic leukemia growth at a given dose 10 mg/kg per day ip expressed as ratio of treated / control (T/C>125 is required for significant activity); conditions: route intraperitoneal
Mus musculus [5] = experiment: Percent packed cell volume at 10 mg/kg per day per mouse; parameters: unit not given here
Mus musculus [6] = experiment: Effect on Ehrlich ascites carcinoma growth in CF1 mice at 10 mg/kg per day ip survival at day 9; 8/8; conditions: route intraperitoneal
Mus musculus [7] = experiment: Effect on Ehrlich ascites carcinoma growth in CF1 mice at 10 mg/kg per day ip survival at day 9; 6/6; conditions: route intraperitoneal
Mus musculus [8] = experiment: Effect of compound on P-388 lymphocytic leukemia growth at a given dose 15 mg/kg per day ip expressed as average survival days of treated mice; conditions: route intraperitoneal
Mus musculus [9] = experiment: Effect of compound on P-388 lymphocytic leukemia growth at a given dose 15 mg/kg per day ip expressed as ratio of treated / control (T/C>125 is required for significant activity); conditions: route intraperitoneal
Mus musculus [10] = experiment: Effect of compound on P-388 lymphocytic leukemia growth at a given dose 10 mg/kg per day ip expressed as ratio of treated / control; conditions: route intraperitoneal
Mus musculus [11] = experiment: Effect of compound on P-388 lymphocytic leukemia growth at a given dose 2.5 mg/kg per day ip expressed as average survival days of treated mice; conditions: route intraperitoneal
Mus musculus [12] = experiment: Effect of compound on P-388 lymphocytic leukemia growth at a given dose 4 mg/kg per day ip expressed as average survival days of treated mice; conditions: route intraperitoneal
Mus musculus [13] = experiment: Effect of compound on P-388 lymphocytic leukemia growth at a given dose 5 mg/kg per day ip expressed as average survival days of treated mice; conditions: route intraperitoneal
Mus musculus [14] = experiment: Effect of compound on P-388 lymphocytic leukemia growth at a given dose 6.25 mg/kg per day ip expressed as ratio of treated / control (T/C>125 is required for significant activity); conditions: route intraperitoneal
Mus musculus [15] = experiment: Effect of compound on P-388 lymphocytic leukemia growth at a given dose 12.50 mg/kg per day ip expressed as ratio of treated / control (T/C>125 is required for significant activity); conditions: route intraperitoneal
Mus musculus [16] = experiment: Effect of compound on P-388 lymphocytic leukemia growth at a given dose 25 mg/kg per day ip expressed as ratio of treated / control (T/C>125 is required for significant activity); conditions: route intraperitoneal
Mus musculus [17] = experiment: Effect of compound on P-388 lymphocytic leukemia growth at a given dose 10 mg/kg per day ip expressed as ratio of treated / control (T/C>125 is required for significant activity); conditions: route intraperitoneal
Mus musculus [18] = experiment: Effect of compound on P-388 lymphocytic leukemia growth at a given dose 5 mg/kg per day ip expressed as ratio of treated / control (T/C>125 is required for significant activity); conditions: route intraperitoneal
Mus musculus [19] = experiment: Effect of compound on P-388 lymphocytic leukemia growth at a given dose 15 mg/kg per dayip expressed as average survival days of treated mice
Mus musculus [20] = experiment: Effect of compound on P-388 lymphocytic leukemia growth at a given dose 15 mg/kg per day ip expressed as ratio of treated / control; conditions: route intraperitoneal
Mus musculus [21] = experiment: Effect of compound on Ehrlich ascites carcinoma growth in CF1 mice at a dose ((20 mg/kg)/day) ip survival at day 9 packed cell volume as a percent
Mus musculus [22] = experiment: Effect of compound on Ehrlich ascites carcinoma growth in CF1 mice at a dose ((20 mg/kg)/day) ip survival at day 9 packed cell volume
Mus musculus [23] = experiment: Effect of compound on Ehrlich ascites carcinoma growth in CF1 mice at 20 mg/kg per day ip survival at day 9; 8/8; conditions: route intraperitoneal
Mus musculus [24] = experiment: Effect of compound on P-388 lymphocytic leukemia growth at a given dose 25 mg/kg per day ip expressed as average survival days of treated mice; conditions: route intraperitoneal

Structure (SMILES)	inhibition in vivo at 10 mg/kg/day (Mus musculus [1]) [%]	Days (Mus musculus [2])	% (Mus musculus [3])	Volume (Mus musculus [5])	Survivors at day 9 (Mus musculus [6])	Survivors at day 9 (Mus musculus [7])	further results
O=C1C(CCl)=C(CCl)C(=O)c2ccccc21	98.8	12.2	5	0.31	8		T/C (Mus musculus [4]): 128
O=C1C(CN(CCCl)CCCl)=CS(=O)(=O)c2ccccc21	99.9		2	0.01		6	
CCC(=O)OCC1=CS(=O)(=O)c2ccccc2C1=O	99.5		0.07	0.23		6	
O=C(OCC1=CS(=O)(=O)c2ccccc2C1=O)c1ccccc1	0		33.7	2.7	8		
O=C1C(COC(=O)N(C(=O)Nc2ccccc2)c2ccccc2)=CS(=O)(=O)c2ccccc21	69.3		38	0.58		6	
O=C1c2ccccc2S(=O)(=O)CC1CCl (configuration not stated)	36.3		43.5	1.84	8		Days (Mus musculus [8]): 10; T/C (Mus musculus [9]): 105
O=C1C(CNc2ccccc2)=CS(=O)(=O)c2ccccc21	0		40.2	2.8	8		
O=C1C(Br)=C(c2ccccc2)S(=O)(=O)c2ccccc21	0.4	11.4	30.6	4.06	8		T/C (Mus musculus [10]): 120
COCCOCC1=CS(=O)(=O)c2ccccc2C1=O	98.2		8.2	0.07		6	
CC(C)OCC1=CS(=O)(=O)c2ccccc2C1=O	99.2	11.6	3.19	0.28		6	T/C (Mus musculus [4]): 122
O=C1C(CBr)=CS(=O)(=O)c2ccccc21	92.8	10	8.63	0.35	8		T/C (Mus musculus [4]): 105
O=C1C(CI)=CS(=O)(=O)c2ccccc21	98		9.57	0.15		6	
CCCOCC1=CS(=O)(=O)c2ccccc2C1=O	99.9		0.19	0.12		6	
CCNC(=O)OCC1=CS(=O)(=O)c2ccccc2C1=O	99.3		1.33	0.38		6	
O=c1cc[s+]([O-])c2ccccc12 (configuration not stated)	89.6		27.8	0.27		6	
O=COCC1=CS(=O)(=O)c2ccccc2C1=O	91.6		4.23	0.57		6	
COCC1=CS(=O)(=O)c2ccccc2C1=O	99.9	12	0.1	0.1	8		T/C (Mus musculus [4]): 126
CC(=O)OCC1=CS(=O)(=O)c2ccccc2C1=O	99.5	6.6	2	0.33	8		Days (Mus musculus [11]): 10.2; Days (Mus musculus [12]): 11.3; Days (Mus musculus [13]): 11.6; T/C (Mus musculus [4]): 69; T/C (Mus musculus [14]): 107; T/C (Mus musculus [15]): 118; T/C (Mus musculus [16]): 122
CCOCC1=CS(=O)(=O)c2ccccc2C1=O	92.4	12.2	17.8	0.54	8		Days (Mus musculus [8]): 9.6; Days (Mus musculus [13]): 10.4; T/C (Mus musculus [17]): 128; T/C (Mus musculus [9]): 101; T/C (Mus musculus [18]): 109
O=C1C(COCCCl)=CS(=O)(=O)c2ccccc21	98.1		7.93	0.07		6	
O=C1C(CN2CCOCC2)=CS(=O)(=O)c2ccccc21	0		43.3	1.25	8		
O=C1C(COCCBr)=CS(=O)(=O)c2ccccc21	100		0	0.05	8		
CC1=C(Br)C(=O)c2ccccc2S1(=O)=O	22.8		34.3	2.82	8		Days (Mus musculus [8]): 10.2; T/C (Mus musculus [9]): 107
O=C1C=CS(=O)(=O)c2ccccc21	5.5	11.4	42.6	2.78	8		T/C (Mus musculus [4]): 120
O=C1C(Br)=CS(=O)(=O)c2ccccc21	69.9	12.4	38.3	0.99	8		Days (Mus musculus [19]): 9.4; T/C (Mus musculus [10]): 130; T/C (Mus musculus [20]): 99
O=C1C(CBr)=C(CBr)S(=O)(=O)c2ccccc21	53.9	10.3	37.2	0.76	8		% (Mus musculus [21]): 25.2; Inhibition (Mus musculus [21]): 69.9%; T/C (Mus musculus [4]): 108; Volume (Mus musculus [22]): 0.99; Survivors at day 9 (Mus musculus [23]): 8
Cc1sc2ccccc2c(=O)c1CBr	25.8	11.4	42.7	2.1	8		T/C (Mus musculus [4]): 120
O=c1[nH]cc(F)c(=O)[nH]1 [FLUOROURACIL]							Days (Mus musculus [24]): 17.6; T/C (Mus musculus [16]): 186
